According to PMC10384874, “The Expression of Antibacterial Peptide Turgencin A in Pichia pastoris and an Analysis of Its Antibacterial Activity” (Molecules, 2023):
No end group written: not given here.

Key:
[1] = system: S. aureus ATCC25923; assay: Temperature stability, read out by agar well diffusion assay; assay type: physicochemical, Staphylococcus aureus; settings: 13.7 μg·mL^−1 in 50 mM pH 7.4 Tris-HCl, inhibition circle against S. aureus ATCC25923 after 12 h, n = 3
Description: (§1) The test bacterial strain was seeded into an LB liquid medium and cultured at 37 °C until the OD600 value reached 1. In total, 50 μL of bacteria was mixed with the 15 mL molten LB medium (1% peptone, 1% NaCl, and 0.5% yeast extract) at 25 °C and allowed to solidify. Holes were punched with sterile gun heads. Subsequently, 50 μL of the fermentation supernatant was added to the holes. Gentamicin (Gen) at 50 µg·mL^−1 was used as the positive control. The antibacterial peptide SC3, which was not active in the laboratory, was used as the negative control.
(§2) The rTurgencin A freeze-dried fermentation supernatant was dissolved in different buffers. The contents were all 200 mg·mL^−1. Therefore, the concentrations of rTurgencin A in this experiment were all 13.7 μg·mL^−1.
The rTurgencin A freeze-dried fermentation supernatant was dissolved in a 50 mM pH 7.4 Tris-HCl solution and then treated at 4 °C, 25 °C, 37 °C, 65 °C, and 90 °C for 1 h. The samples were subjected to an agar well diffusion assay. Twelve hours later, the inhibition circle was observed. The negative control was a 50 mM pH 7.4 Tris-HCl solution after treatment for 1 h at the same temperature.

[2] = system: S. aureus ATCC25923; assay: Stability in salt solutions, read out by agar well diffusion assay; assay type: physicochemical, Staphylococcus aureus; settings: 5 mM MgCl2, 50 mM MgCl2, 50 mM KCl and 150 mM KCl; 13.7 μg·mL^−1; inhibition circle against S. aureus ATCC25923; n = 3
Description: as §1, §2
The rTurgencin A freeze-dried fermentation supernatant was dissolved in 5 mM MgCl2, 50 mM MgCl2, 50 mM KCl, and 150 mM KCl, respectively. Then, the samples were subjected to an agar well diffusion assay. Twelve hours later, the inhibition circle was observed. The negative control was the different salt solutions.

[3] = system: total food spoilage bacteria in pork; assay: Pork preservation experiment, total number of bacteria; settings: pork treated with rTurgencin A at 10 μg·mL^−1, stored at 4 °C; days 0, 1, 3, 5; control group increasing
Description: The fermentation supernatant was passed through a 0.22 μm membrane filter and transferred to a beaker. Fresh pork hind leg meat was cut into 5 g pieces and placed in the above solution, soaked for 1 min in each direction, shaken so that the surface of the meat was fully exposed to the solution, removed, placed on cling film to drain, left for 5 min at room temperature, turned over, and left for another 5 min to remove excess water so that the meat neither dripped nor was too dry. […] The colony count is expressed by colony-forming units (CFU), and a common logarithm determines the total number of colonies. SC3 served as the negative control.

[4] = system: S. aureus ATCC25923; assay: Minimum inhibitory concentration (MIC) determination; assay type: cell-based, Staphylococcus aureus; settings: S. aureus (ATCC 25923); 96-well plate, LB, fermentation supernatant diluted to 1-6 μg·mL^−1; lowest peptide concentration with no bacterial growth; n = 3
Description: (§3) A single colony of the tested bacteria was picked to LB liquid medium and incubated at 37 °C until the OD600 reached about 1. This test bacteria solution was diluted 1000 times. The fermentation supernatant was serially diluted in a 96-well plate using replacement buffer to 1, 2, 3, 4, 5, and 6 μg·mL^−1 concentrations. Then, 20 μL of the diluted peptide and 100 μL of the test bacterium were added to each well. The negative control and positive control were […], respectively. The MIC value was defined as the lowest peptide concentration associated with no bacterial growth. In this study, the MIC values of Turgencin A were determined against S. aureus ATCC25923, Salmonella spp. ATCC10467, E. coli ATCC10305, E. Coli O157 ATCC35150, L. monocytogenes ATCC21633, and B. subtilis ATCC6633.

[5] = system: L. monocytogenes ATCC21633; assay: Agar well diffusion assay; assay type: cell-based, Listeria monocytogenes; settings: 9 μg·mL^−1 rTurgencin A fermentation supernatant, 50 μL per well, against 50 μg·mL^−1 gentamicin
Description: as §1

[6] = system: S. aureus ATCC25923; assay: pH stability, read out by agar well diffusion assay; assay type: physicochemical, Staphylococcus aureus; settings: 13.7 μg·mL^−1; 100 mM buffers pH 2, 4, 6, 8, 10; 37 °C, 4 h; inhibition circle against S. aureus ATCC25923 after 12 h; n = 3
Description: as §1, §2
The rTurgencin A freeze-dried fermentation supernatant was dissolved in a glycine solution at a pH of 2, a sodium acetate solution at a pH of 4, a Tris-HCl solution at a pH of 6, a Tris-HCl solution at a pH of 8, and a glycine solution at a pH of 10. The final concentrations of the buffer solution were all 100 mM. Then, the samples were treated at 37 °C for 4 h and subjected to the agar well diffusion assay. Twelve hours later, the inhibition circle was observed. The negative control was a buffer solution of different pHs.

[7] = Antibacterial activity of the nickel column purified product; assay type: cell-based; settings: nickel column purified product after dialysis of the replacement solution
Description: For the affinity purification with a nickel column, the Ni NTA Beads 6FF filler (Smart-Lifesciences, Changzhou, China) was added to the column, and the filler was rinsed twice with distilled water to remove ethanol, followed by two rinses with binding buffer (50 mM Tris-HCl pH = 7.9, 500 mM NaCl, and 10 mM Imidazole). The fermentation supernatant was treated with a 0.45 μm membrane filter, added to the nickel column, and combined with filler for 1 h in a low-speed shaker at 4 °C. The flow solution was collected and rinsed with binding buffer (50 mM Tris-HCl pH = 7.9, 500 mM NaCl, and 10 mM Imidazole) three times to wash off unbound proteins. Elution buffer (50 mM Tris-HCl pH = 7.9, 500 mM NaCl, and 1 M imidazole) was added and the eluent of the target protein was collected. Finally, the eluent was dialyzed in 0.01 M PBS for 12 h at a low temperature.

[8] = system: B. subtilis ATCC6633; assay: Minimum inhibitory concentration (MIC) determination; assay type: cell-based, Bacillus subtilis; settings: B. subtilis (ATCC 6633); 96-well plate, LB, fermentation supernatant diluted to 1-6 μg·mL^−1; lowest peptide concentration with no bacterial growth; n = 3
Description: as §3

[9] = Pork preservation experiment, flesh color; settings: pork treated with rTurgencin A at 10 μg·mL^−1, stored at 4 °C; days 0, 2, 4, 6; control deteriorated on day 4
Description: The fermentation supernatant was passed through a 0.22 μm membrane filter and transferred to a beaker. Fresh pork hind leg meat was cut into 5 g pieces and placed in the above solution, soaked for 1 min in each direction, shaken so that the surface of the meat was fully exposed to the solution, removed, placed on cling film to drain, left for 5 min at room temperature, turned over, and left for another 5 min to remove excess water so that the meat neither dripped nor was too dry. The meat was then wrapped in plastic and stored in a refrigerator at 4 °C for seven days. During this period, the pork samples were tested for colony counts every 48 h, according to the method of GB 4789-2022 [42]. The colony count is expressed by colony-forming units (CFU), and a common logarithm determines the total number of colonies. SC3 served as the negative control.

[10] = system: E. coli O157 ATCC35150; assay: Minimum inhibitory concentration (MIC) determination; assay type: cell-based, Escherichia coli O157; settings: E. coli O157 (ATCC 35150); 96-well plate, LB, fermentation supernatant diluted to 1-6 μg·mL^−1; lowest peptide concentration with no bacterial growth; n = 3
Description: as §3

[11] = system: S. aureus ATCC25923; assay: Total nucleotide leakage; assay type: cell-based, Staphylococcus aureus; settings: positive control 0.1% Triton X-100, 4 h
Description: The total nucleotide leakage associated with the peptide activity was analyzed according to the protocol described by Shwaiki et al.. We detected the total nucleotide leakage of the effect of Turgencin A on the cell membrane of S. aureus ATCC25923. The OD of each concentration was measured at 260 nm after four hours of contact reaction. The positive and negative controls were 0.1% Triton X-100 and water, respectively.

[12] = system: L. monocytogenes ATCC21633; assay: Minimum inhibitory concentration (MIC) determination; assay type: cell-based, Listeria monocytogenes; settings: L. monocytogenes (ATCC 21633); 96-well plate, LB, fermentation supernatant diluted to 1-6 μg·mL^−1; lowest peptide concentration with no bacterial growth; n = 3
Description: as §3

[13] = system: E. coli ATCC10305; assay: as above; assay type: cell-based, Escherichia coli; settings: E. coli (ATCC 10305); 96-well plate, LB, fermentation supernatant diluted to 1-6 μg·mL^−1; lowest peptide concentration with no bacterial growth; n = 3
Description: as §3

[14] = system: S. aureus ATCC25923; assay: Agar well diffusion assay; assay type: cell-based, Staphylococcus aureus; settings: 9 μg·mL^−1 rTurgencin A fermentation supernatant, 50 μL per well, against 50 μg·mL^−1 gentamicin
Description: as §1

[15] = system: Gram-positive and Gram-negative bacteria; assay: Agar well diffusion assay, inhibition profiling of six strains; assay type: cell-based; settings: fermentation supernatant, 9 μg·mL^−1 rTurgencin A; B. subtilis, S. aureus, L. monocytogenes, Salmonella spp., E. coli O157, E. coli
Description: as §1

[16] = system: Salmonella spp. ATCC10467; assay: Minimum inhibitory concentration (MIC) determination; assay type: cell-based; settings: Salmonella spp. (ATCC 10467); 96-well plate, LB, fermentation supernatant diluted to 1-6 μg·mL^−1; lowest peptide concentration with no bacterial growth; n = 3
Description: as §3

[17] = system: S. aureus ATCC25923; assay: Protease stability, read out by agar well diffusion assay; assay type: in vitro ADME, Staphylococcus aureus; settings: 2 h, 13.7 μg·mL^−1, inhibition circle against S. aureus ATCC25923, n = 3
Description: as §1, §2
The rTurgencin A freeze-dried fermentation supernatant was dissolved in buffers of a glycine solution at a pH of 2, a PBS solution at a pH of 6, a Tris-HCl solution at a pH of 7, and a Tris-HCl solution at a pH of 8. The final concentrations of the buffer solution were all 100 mM. Pepsin was added to the solution at a pH of 2, papain at a pH of 6, proteinase K at a pH of 7, and trypsin at a pH of 8. The protease concentrations were all 1 mg·mL^−1. The mixtures of 0.24 U of different protease solutions and rTurgencin A were reacted at 37 °C for 2 h. The samples were then subjected to an agar well diffusion assay. Twelve hours later, the inhibition circle was observed. The negative control was different protease solutions.

GPKTKAACKMACKLATCGKKPGGWKCKLCELGCDAV (disulfide (positions not given here)) [rTurgencin A, His-tagged recombinant Turgencin A expressed in Pichia pastoris; tested as yeast fermentation supernatant, concentration by ELISA]
stability at low and room temperatures ([1]; 4 °C, 25 °C and 37 °C for 1 h): good stability | diameter of the inhibition circle as % of the maximum inhibition circle diameter ([1]; 90 °C for 1 h): 55% | antibacterial activity in salt solutions [2]: not affected | bacterial colonies in pork over storage days [3]: showed a decreasing trend with an increase in days | MIC [4]: 3 µg/mL | inhibition circle diameter compared with gentamicin [5]: more significant than 50 μg·mL^−1 gentamicin | reduction in inhibitory action at low pHs [6]: 40% | stability at neutral and high pH levels [6]: good stability | antibacterial activity of the purified product [7]: deficient antibacterial activity | MIC [8]: 2 µg/mL | color of the pork flesh [9]: still bright on the fourth day | MIC [10]: 5 µg/mL | total nucleotide leakage relative to the positive control ([11]; 1 × MIC): 34.3% | total nucleotide leakage relative to the positive control ([11]; 2 × MIC): 77.3% | total nucleotide leakage relative to the positive control ([11]; 3 × MIC): 131.5% | MIC [12]: 3 µg/mL | MIC [13]: 5 µg/mL | inhibition circle diameter compared with gentamicin [14]: more significant than 50 μg·mL^−1 gentamicin | antibacterial activity (inhibition profiling) [15]: provided antibacterial activity against Gram-positive and Gram-negative bacteria | MIC [16]: 4 µg/mL | stability in papain ([17]; papain 1 mg·mL^−1 (0.24 U), 100 mM PBS pH 6, 37 °C): good stability | antibacterial activity remaining in the presence of pepsin ([17]; pepsin 1 mg·mL^−1 (0.24 U), 100 mM glycine pH 2, 37 °C): 70% | stability in k-protease ([17]; proteinase K 1 mg·mL^−1 (0.24 U), 100 mM Tris-HCl pH 7, 37 °C): good stability | stability in trypsin ([17]; trypsin 1 mg·mL^−1 (0.24 U), 100 mM Tris-HCl pH 8, 37 °C): good stability
